In US20130115178A1, “TANNING ENHANCERS AND SELF-TANNING SUBSTANCES” (MERCK PATENT GESELLSCHAFT MIT BESCHRANKTER HAFTUNG, priority 2010, published 2013):
Values joined by “and” are separate entries in the source; they are usually repeats but may differ in a detail not shown here. Equal entries are not always repeated.

How the values were obtained:
[1] = In-vitro investigation of DHA and DHA/glucuronolactone (Liquidskin model, L-a-b values); settings: 37° C., pH 7
[2] = system: B16V mouse melanoma cells; experiment: B16 V mouse melanoma cell test (melanin concentration); format: cell-based; settings: for Melanin concentration %: relative to blank DMSO + α-MSH = 100%
Protocol: Description of the performance of the B16 V mouse melanoma cell test:
B16V mouse melanoma cells (manufacturer: DSMZ; Article No,: ACC370) in RPMI medium (Invitrogen, Article No.: 31870), to which 10% of FBS (foetal bovine serum, Invitrogen, Article No: 10499044), 2 mM L-glutamine (Invitrogen, Article No: 25030) and 1 mM sodium pyruvate (Invitrogen, Article No:11360) had additionally been added (modified RPMI medium), are transferred into a culture bottle and incubated at 37° C. and 5% CO2 for 72 h. The medium is separated off, and the cells are washed with 10 ml of D-PBS (Invitrogen, Article No. 14190) and subsequently filtered off with suction. 1 ml of HyQtase cell detachment solution (Hyclone, Article No. SV30030.01) is added to the cells. The bottle is swirled a number of times, and the HyQtase cell detachment solution is subsequently removed by suction. The cells are then incubated in the incubator at 37° C. and 5% CO2 for 5 min. The cells are taken up in the modified RPMI medium (Invitrogen, Article No.: 31870), and the cell count is determined. To this end, the cells are stained with Tryptan Blue and counted in a Neubauer chamber. The cells are subsequently sown out again in the modified RPMI medium in a defined cell count of 80,000 cells per well (6-well clear plate, TCT, PS (Nunc)).
The plate is subsequently incubated at 37° C. and 5% CO2 for 24 h, the medium is then removed. […]
After the final incubation period, the medium is removed by suction, and the cells are washed with 1000 μl of D-PBS (Invitrogen, Article No. 14190). […] The cell count is subsequently determined. To this end, the cells are stained with Tryptan Blue and counted in a Neubauer chamber. […] 200 μl are then pipetted as quadruple determination (per cup) into a 96-well plate (VWR, Article No. 4100636981), and the absorption at a wavelength of 405 nm is determined. […] The content of melanin can be determined in this way by means of a calibration line.
The other values were determined relative to the blank sample with dimethyl sulfoxide (DMSO) and a-MSH, whose measurement was set at 100%

[3] = system: explants from the stomach tissue of a pale-skinned person (type); experiment: Ex-vivo study: chromametric colour measurement of skin explants; set-up: species or system human; key: change in the L*a*b* a value from D0; settings: D5 vs D0; single explants; listed as P2
[4] = system: explants from the stomach tissue of a pale-skinned person (type); experiment: as above; set-up: species or system human; key to b / a: CIE L*a*b* colour coordinates, Minolta CR-300 chromameter, D65
Protocol: 12 explants from the stomach tissue of a pale-skinned person (type) having an average diameter of 10 mm are prepared (reference: P831-AB49).
The explants are kept in a BEM medium (B10-EC's explants medium) at 37° C. in a moist atmosphere comprising 5% of CO2.
The following samples are tested: (in each case 3 explants), where the solutions of the corresponding substances used comprise 90% of water and 10% of ethanol.
Glucuronolactone is employed in the bicyclic form.
2 μl of the respective sample are added to the explants and distributed for the first time (D0), 1 day later (D1), 2 days later (D2), 3 days later (D3) and 4 days later (D4). The colour of the explants is determined chromametrically. The measurements are carried out on addition (D0), on day 1 (D1), on day 5 (D5) and on day 11 (D11).
The colour measurements are carried out using a Minolta CR-300 Chroma-meter, and the L, a and b values are read off correspondingly on the instrument.
The following parameters are set:
A colour area is present here which is viewed at a viewing angle of 2 degrees. This viewing angle is used as standard in the chromametric measurement. • Irradiation source D65, corresponding to daylight • Region of the measurement: 3 mm • Parameters used: L*a*b*
The sample is placed on the bearing rail with the epidermis facing downwards. The irradiation is carried out from the underside through the area indicated (3 mm).
In the colorimetric determinations <<L a b>>, the L value determines the contrast of the skin. If the L value drops, the skin appears darker.
Δa after one day is calculated as follows: […]

[5] = D0 (on addition), single explants, n=3, listed as P2
[6] = D1, single explants, n=3, listed as P2
[7] = D5, single explants, n=3, listed as P2
[8] = D11, single explants, n=3, listed as P2

## O=C(CO)CO [DHA, 1,3-dihydroxyacetone]
[1]; after 6 hours
  L: 86.1
  a: 13.4
  b: 39.9
[1]; after 24 hours
  L: 61.3
  a: 31.7
  b: 75.0
[1]; after one hour
  L: 99.4
  a: 0.4
  b: 1.3

## O=C[C@H](O)[C@H]1OC(=O)[C@@H](O)[C@H]1O [Glucuronolactone]
[2]; 10 mM + α-MSH (10^−8 M)
  Melanin concentration %: 46.9%
[2]; 10 mM, without α-MSH
  Melanin concentration %: 56.7%
[2]; cell culture tests with B16V mouse melanoma cells
  melanin production: reduce melanin production
[3]
  Δa: 0.25 and 0.22 and 0.26
[4]; [5]
  L: 64.07 and 62.49 and 62.34
  b: 17.1 and 17.34 and 16.15
[4]; [6]
  L: 65.12 and 64.59 and 62.71
  b: 17.81 and 17.14 and 16.29
[4]; [7]
  L: 62.73 and 63.62 and 63.56
  b: 16.51 and 16.88 and 15.95
[4]; [8]
  L: 64.22 and 65.7 and 62.69
  a: 1.87 and 2.44 and 2.65
  b: 14.34 and 15.04 and 15.57
[4]; explants, glucuronolactone 1%
  skin colour in comparison with the untreated sample: darkening of the skin
